# How the values were obtained:
# Format in all cases: cell-based, human
# [1] = test system: pp65-specific naïve T cells; test: Induction of CMV-pp65-specific T cells from naive donor repertoire, dextramer staining; settings: CD45RO-depleted PBMCs, HLA-A2+/CMV negative donors, IL-7, representative example
# Protocol: PBMC from HLA-A2/CMV+ donors were thawed, washed and then incubated with the peptides (5 μg/ml) for 60 min at 4° C. Subsequently, the cells were washed twice and then plated at 2×10^5 cells per well in 96-well tissue culture plate. Cells were cultured for 5 days and subsequently they were pulsed with [^3H] thymidine and harvested 16 h later. In some experiments, the cells were cultured for 12 days and then stained with dextramers specific for pp65 NLVPMVATV (SEQ ID NO:19) epitope. Monocyte-depleted PBMCs were also used. To analyze primary immune responses against pp65 protein, PBMCs from HLA-A2+/CMV-negative donors were used. Autologous DCs were incubated with either NW-pp65 or GA-pp65 peptide (5 μg/ml) at 4° C. for 1 h, followed by three washes to remove unbound peptides. Subsequently, the cells were incubated with CD45RO-depleted PBMC (responder cells) and co-cultured for 10 days at ratio 1/10 (DC to responder cells) in X-vivo 15 medium supplemented with 10 ng/ml human IL-7 for 10 days. […]
# Dextramers with CMV (NLVPMVATV) (SEQ ID NO:19) and HIV (ILKEPVHGV) (SEQ ID NO:22) HLA-A2 specific antigens were obtained from Immudex (Copenhagen, Denmark). […] Cells were washed and resuspended in SB containing 1% paraformaldehyd and analyzed on a BD SLR II flow cytometer. The data were analyzed using FCS Express (De Novo Software, Los Angeles, Calif., USA). […]
# [2] = test system: PBMC cultures from CMV-positive donors; test: IFN-γ production in PBMC cultures
# Protocol: (A) PBMCs from HLA-A2+/CMV-positive donors were incubated with the indicated fusion peptides for 60 min at 4° C., washed and then incubated at 37° C. for […]. T-cell proliferation was monitored by thymidine incorporation. (B) Dextramer staining of CD8 T cells against NLVPMVATV (SEQ ID NO:19) epitope. (C) As in A and B, but monocyte-depleted PBMCs were used. (D) INF-γ and IL-10 levels in PBMC culture supernatants determined by ELISA.
# Next, the immunostimulatory potential of the NW-pp65 fusion peptide was evaluated by assessing its ability to stimulate the overall IFN-γ and IL-10 production in PBMC cultures from CMV-positive donors (FIG. 8D).
# [3] = test system: iDCs; test: Peptide binding and internalization by fluorescence microscopy; settings: 37° C.
# Protocol: Then the medium was replaced with fresh medium and the cells were incubated with the peptides (5 μg/ml) for 60 min at 37° C. followed by 5 min incubation with Hoechst 33342 (Invitrogen Dynal AS, Oslo, Norway). The cells were washed twice with PBS and fixed with 4% paraformaldehyde for 15 min at 4° C. After washing, slides were covered with Dako cytomation fluorescent mounting medium and then images were taken with either epifluorescence (Leica DM RHC, Leica Microscopy As, Oslo, Norway) or confocal microscopy (Zeiss LSM 510, […]).
sequence,measurement,setting,value
"NWYLPWLGTNDWGCFTWPPWQAGILARNLVPMVATVQGQNLKYQEFFWDANDIYRIFAEL [NW-60-mer, 48-mer CMV pp65 peptide fused to NW peptide]",pp65-specific naïve T cells (dextramer staining),[1],0.22%
same,total amounts of secreted IFN-γ,"[2]; ELISA of PBMC culture supernatants, relative to untargeted peptide, n=4",significant increase
same,proportion of CD8 and CD4 T cells that produced IFN-γ,[2]; PBMCs from HLA-A2+/CMV positive,significant increase
same,internalization by iDCs (confocal microscopy),[3],internalized
